Key:
[1] = Pharmacokinetics Assay in rats, intragastric administration, LC/MS/MS; type: in vivo; details: both sexes, rat, plasma, po, SD rats, 25 mg/kg; for Vd/F: read-out: Apparent Distribution Volume Vz/F; for CL/F: read-out: Clearance CL/F (converted); for half-life: read-out: Half-Life t½ (converted); for Cmax: read-out: Plasma Conc. Cmax
Method: The pharmacokinetic behavior of the compounds of the present invention was studied and evaluated in rats. 8 healthy adult SD rats, male and female in half, were purchased from SINO-BRITSH SIPPR/BK LAB. ANIMAL LTD., CO, License number: SCXK (Shanghai) 2003-0002 The right amount of compounds were weighted and grinded with 0.5% Sodium Carboxymethyl cellulose uniformly, suspended them with 1% tween 80 to 2.5 mg/mL of suspension before use. […] 8 Healthy adult adult SD rats, male and female in half, were divided into 2 groups. After an overnight fast, the rats were administered intragastrically at a dose of 25.0 mg/kg. […] The plasma samples were stored at −20° C. until analysis. The rats were fed 2 hours after administration. 50 μL of rat plasmas taken at various time points after administration were mixed with 50 μL of standard series solution to obtain plasma concentration of 50.0, 100, 200, 500, 1000, 2000, 5000 ng/mL. 150 μL methanol was added and then the mixture was mixed for 3 minute using a vortexer and centrifuged for 10 minutes at 13,500 rpm. 10 μL of the supernatant was analyzed by LC-MS/MS. The main pharmacokinetic parameters were caculated by DAS 2.0 software.

[2] = test system: xenografts of Calu-3 human lung cancer; experiment: Therapeutic effects against xenografts of Calu-3 human lung cancer in nude mice; type: in vivo, BALB/cA-nude mice; details: for tolerance of the mice: present administration protocol
Method: BALB/cA-nude mice, 6 to 7 weeks old, ♀, purchased from Slaccas Experimental Animal LTD., CO.
Nude mice were hypodermic inoculated Calu-3 human lung cancer cell. After tumors grew to 150-250 mm^3, mice were randomly divided into teams (d0).
The volume of tumors and the weigh of the mice were measured and recorded for 2-3 times per week.
The calculation formula of the volume of tumor (V) is: V=½×a×b^2, a: length of tumor, b: width of tumor.

[3] = test system: human epidermoid carcinoma A431 cells; experiment: EGFR Cell Proliferation Inhibition Assay (SRB method, 72 hours); type: cell-based; details: A-431
Source text: The activity is represented by the IC50 value. The general procedures of the assay are given as follows: The cancer cells A431 that highly expressing EGFR (Institute of biochemistry and cell biology) were chosen and seeded to 96-well cell culture plate at a suitable concentration (e.g., 5000 cells/mL medium). […] Then, the cell culture medium was replaced by fresh one with tested compounds added in it at serial concentrations (general 6 to 7 concentrations). Then the cells were put back to the incubator and cultured continuously. 72 hours later, the activity of the tested compounds for inhibiting the cell proliferation was determined by using Sulforhodamine B (SRB) method. IC50 value on tested cells are calculated by the data of inhibition rates of serial concentrations of the tested compounds.

EGFR kinase = EGFR kinase (Homo sapiens (Human), UniProt P00533); experiment: EGFR Kinase Activity Assay (Time-Resolved fluorescence); type: biochemical; details: human-derived recombinant EGFR kinase, 20 μM ATP, 25° C., 45 minutes; read-out: IC50 (EGFR/BIO)
EGFR kinase, sequence (P00533 25-1210): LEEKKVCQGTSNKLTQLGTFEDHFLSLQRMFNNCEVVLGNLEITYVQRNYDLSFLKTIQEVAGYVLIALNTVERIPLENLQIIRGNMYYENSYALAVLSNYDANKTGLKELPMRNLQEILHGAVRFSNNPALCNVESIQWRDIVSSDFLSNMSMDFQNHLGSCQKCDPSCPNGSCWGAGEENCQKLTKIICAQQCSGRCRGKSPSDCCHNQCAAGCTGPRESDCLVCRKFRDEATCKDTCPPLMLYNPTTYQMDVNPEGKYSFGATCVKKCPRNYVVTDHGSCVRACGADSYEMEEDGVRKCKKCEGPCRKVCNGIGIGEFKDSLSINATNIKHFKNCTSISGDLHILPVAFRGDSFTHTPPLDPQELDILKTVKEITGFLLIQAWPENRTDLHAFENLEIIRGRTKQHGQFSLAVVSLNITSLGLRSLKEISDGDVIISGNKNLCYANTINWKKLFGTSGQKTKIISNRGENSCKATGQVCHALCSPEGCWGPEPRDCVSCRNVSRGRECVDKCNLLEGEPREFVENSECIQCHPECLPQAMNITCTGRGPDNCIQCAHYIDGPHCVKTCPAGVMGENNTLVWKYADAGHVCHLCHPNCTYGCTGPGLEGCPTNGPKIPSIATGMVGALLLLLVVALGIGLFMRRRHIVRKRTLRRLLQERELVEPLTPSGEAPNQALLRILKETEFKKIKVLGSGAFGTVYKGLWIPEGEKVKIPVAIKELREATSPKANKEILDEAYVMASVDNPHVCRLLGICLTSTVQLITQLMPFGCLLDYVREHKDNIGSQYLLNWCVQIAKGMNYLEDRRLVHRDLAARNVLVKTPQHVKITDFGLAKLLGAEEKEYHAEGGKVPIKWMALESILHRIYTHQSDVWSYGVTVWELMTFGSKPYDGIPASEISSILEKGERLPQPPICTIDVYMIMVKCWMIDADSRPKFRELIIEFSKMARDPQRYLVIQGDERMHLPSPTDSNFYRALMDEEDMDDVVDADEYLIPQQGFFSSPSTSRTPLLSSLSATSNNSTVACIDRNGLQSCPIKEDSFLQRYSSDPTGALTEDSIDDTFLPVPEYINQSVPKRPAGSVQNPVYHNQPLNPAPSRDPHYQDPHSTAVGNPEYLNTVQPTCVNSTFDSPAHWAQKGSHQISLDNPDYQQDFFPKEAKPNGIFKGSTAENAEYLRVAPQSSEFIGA
Method: The in vitro EGFR kinase activity was tested by the following assay.
The following assay may be used to determine the activity of the compounds of the invention for inhibiting EGFR kinase activity. […] EGFR kinase used in this assay is a human-derived recombinant protein (Cell signaling technology, #7908), which was reacted with peptide substrate and different concentrations of tested compounds in a buffer solution containing 60 mM HEPES (pH7.5), 5 mM MgCl2, 5 mM MnCl2, 3 μM Na3VO4, […] (1000×) and 20 μM ATP at 25° C., for 45 minutes. The EGFR kinase activity was determined by using a Time-Resolved fluorescence method.

[4] = high dose (200 mg/kg), Calu-3 xenografts
[5] = low dose (100 mg/kg), Calu-3 xenografts

SMILES | IC50 [3] [nM] | IC50 (EGFR kinase) [nM] | Vd/F [1] [L/kg] | CL/F [1] [mL/min/kg] | half-life [1] [h] | Cmax [1] [ng/mL] | reduced tumor volume (fraction of tumors) [2, 4] | reduced tumor volume (fraction of tumors) [2, 5] | tolerance of the mice [2] | other results
CCOc1cc2ncc(C#N)c(Nc3ccc(OCc4ccccn4)c(Cl)c3)c2cc1NC(=O)/C=C/[C@@H]1CCCN1C [Example 1, (E)-N-[4-[[3-Chloro-4-(2-pyridylmethoxy)phenyl]amino]-3-cyano-7-ethoxy-6-quinolyl]-3-[(2S)-1-methylpyrrolidin-2-yl]prop-2-enamide] | – | – | 3.71 ± 1.68 | 12.7 | 4.04 ± 1.39 | 4480 ± 1880 | 1/6 | 2/6 | well tolerant | MRT ([1]; read-out: Mean Residence Time MRT): 7.78 ± 1.89 h; inhibition of the growth of Calu-3 human lung cancer (in words) ([2]; Calu-3 xenografts): markedly inhibited; completely degraded tumor (fraction of tumors) [2, 4]: 1/6
CCOc1cc2ncc(C#N)c(Nc3ccc(OCc4ccccn4)c(Cl)c3)c2cc1NC(=O)/C=C/[C@@H]1CCCN1 [Example 2, (E)-N-[4-[[3-Chloro-4-(2-pyridylmethoxy)phenyl]amino]-3-cyano-7-ethoxy-6-quinolyl]-3-[(2S)-pyrrolidin-2-yl]prop-2-enamide] | 3 | 6 | – | – | – | – | – | – | – | –
CCOc1cc2ncc(C#N)c(Nc3ccc(OCc4ccccn4)c(Cl)c3)c2cc1NC(=O)/C=C/[C@H]1CCCN1C [Example 5, (E)-N-[4-[[3-Chloro-4-(2-pyridylmethoxy)phenyl]amino]-3-cyano-7-ethoxy-6-quinolyl]-3-[(2R)-1-methylpyrrolidin-2-yl]prop-2-enamide] | – | – | 2.6 ± 0.94 | 8.83 | 3.4 ± 0.45 | 6470 ± 1810 | 4/6 | 3/6 | well tolerant | –

Further lines, with some results ahead:

IC50 [3] [nM] | IC50 (EGFR kinase) [nM] | SMILES | Vd/F [1] [L/kg] | CL/F [1] [mL/min/kg] | half-life [1] [h] | Cmax [1] [ng/mL] | reduced tumor volume (fraction of tumors) [2, 4] | reduced tumor volume (fraction of tumors) [2, 5] | tolerance of the mice [2] | other results
36 | 59 | CCOc1cc2ncc(C#N)c(Nc3ccc(OCc4ccccn4)c(Cl)c3)c2cc1NC(=O)/C=C/[C@@H]1C[C@@H](O)CN1C [Example 3, (E)-N-[4-[[3-Chloro-4-(2-pyridylmethoxy)phenyl]amino]-3-cyano-7-ethoxy-6-quinolyl]-3-[(2S,4R)-4-hydroxy-1-methyl-pyrrolidin-2-yl]prop-2-enamide] | – | – | – | – | – | – | – | –
– | 4 | CCOc1cc2ncnc(Nc3ccc(F)c(Cl)c3)c2cc1NC(=O)/C=C/[C@@H]1CCCN1C [Example 7, (E)-N-[4-[(3-Chloro-4-fluoro-phenyl)amino]-7-ethoxy-quinazolin-6-yl]-3-[(2S)-1-methylpyrrolidin-2-yl]prop-2-enamide] | – | – | – | – | – | – | – | –
8 | 2 | CCOc1cc2ncnc(Nc3ccc(F)c(Cl)c3)c2cc1NC(=O)/C=C/[C@H]1CCCN1C [Example 9, (E)-N-[4-[(3-Chloro-4-fluoro-phenyl)amino]-7-ethoxy-quinazolin-6-yl]-3-[(2R)-1-methylpyrrolidin-2-yl]prop-2-enamide] | – | – | – | – | – | – | – | –

Reference: patent US8901140B2, “6-amino quinazoline or 3-cyano quinoline derivatives, preparation methods and pharmaceutical uses thereof” (Jiangsu Hengrui Medicine Co., Ltd., priority 2009, dated 2014)
